Data reported in patent US20240148821A1, “PHARMACEUTICAL USE OF CYCLIC PEPTIDE COMPOUND” (CHUGAI SEIYAKU KABUSHIKI KAISHA, priority 2021, published 2024).
pIC50: −log10 of the molar value. Bridge positions count the residues as written; N and C are the ends. Square brackets hold non-standard residues; d marks the D form. Peptide text beside a SMILES is read from it. * marks the point of attachment. hPhe(3-Cl-4-CF3) = N[C@@H](CCc1ccc(C(F)(F)F)c(Cl)c1)C(=O)O; NMePhe(2-CF3) = CN[C@@H](Cc1ccccc1C(F)(F)F)C(=O)O; NMePhe(4-Cl) = CN[C@@H](Cc1ccc(Cl)cc1)C(=O)O; Phe(2,6-F2) = N[C@@H](Cc1c(F)cccc1F)C(=O)O; Phe(4-F) = N[C@@H](Cc1ccc(F)cc1)C(=O)O; Ala(cPent) = N[C@@H](CC1CCCC1)C(=O)O; NMeY = CN[C@@H](Cc1ccc(O)cc1)C(=O)O; NMeCha = CN[C@@H](CC1CCCCC1)C(=O)O; NMeChg = CN[C@H](C(=O)O)C1CCCCC1; NMeD = CN[C@@H](CC(=O)O)C(=O)O; NMeL = CN[C@@H](CC(C)C)C(=O)O; NMeV = CN[C@H](C(=O)O)C(C)C; d(β3hA) = C[C@@H](N)CC(=O)O; NMeAbu = CC[C@H](NC)C(=O)O; Ac6c = NC1(C(=O)O)CCCCC1; NMeA = CN[C@@H](C)C(=O)O; NMeAib = CNC(C)(C)C(=O)O; Nle = CCCC[C@H](N)C(=O)O; Piperidide = C1CCN(*)CC1; Ac5c = NC1(C(=O)O)CCCC1; Aze = O=C(O)[C@@H]1CCN1; Sar = CNCC(=O)O

The molecules below were run on Human pancreatic cancer cell line AsPC-1 (G12D mutation Kras) (assay: AsPC-1 cell growth inhibition (AsPC-1 CGI)). Details: read-out: AsPC-1 cell growth inhibition, 50% growth inhibitory concentration (IC50 value); 96 hours, CellTiter-Glo, values classified in ranges.
Type: cell-based
Procedure: Test compounds were serially dilated with dimethyl sulfoxide, and 200 nL was then dispensed to a U-bottom 96-well plate using Labcyte Echo. […] The cell suspension was dispensed to a. plate containing a test compound at 100 μL per well and incubated at 37° C. in a 5% carbon dioxide gas incubator. 96 hours later, 80 μL of CellTiter-Glo (Promega) was added to each well and fluorescence was measured.

| SMILES | pIC50 |
| --- | --- |
| CC(C)C[C@H]1C(=O)N[C@@H](CC2CCCC2)C(=O)N(C)CC(=O)N(C)CC(=O)N(C)[C@@H](CC2CCCCC2)C(=O)N(C)CC(=O)N[C@@H](CCc2ccc(C(F)(F)F)c(Cl)c2)C(=O)N2CCC[C@H]2C(=O)NC2(CCCC2)C(=O)N(C)[C@@H](C(C)C)C(=O)N(C)[C@H](C(=O)N2CCCCC2)CC(=O)N1C [Compound 627] ([NMeL][Ala(cPent)][Sar][Sar][NMeCha][Sar][hPhe(3-Cl-4-CF3)]P[Ac5c][NMeV][NMeD]-Piperidide; lactam N-11) | < 6.30 |
| CCCC[C@@H]1NC(=O)[C@H](Cc2c(F)cccc2F)NC(=O)CN(C)C(=O)[C@H](Cc2ccc(OC)cc2)N(C)C(=O)[C@@H]2CCN2C(=O)[C@H](C)N(C)C(=O)[C@H]([C@@H](C)CC)NC(=O)[C@H](CC)N(C)C(=O)C[C@@H](C(=O)N2CCCCC2)N(C)C(=O)[C@H](CC(C)C)NC(=O)C(C)(C)N(C)C1=O [Compound 1187] ([NMeAbu]I[NMeA][Aze][NMeY](Me)[Sar][Phe(2,6-F2)][Nle][NMeAib]L[NMeD]-Piperidide; lactam N-11) | < 6.30 |
| CCCC[C@@H]1NC(=O)[C@H](Cc2ccc(F)cc2)NC(=O)CN(C)C(=O)[C@H](Cc2ccc(Cl)cc2)N(C)C(=O)CN(C)C(=O)CN(C)C(=O)[C@H]([C@@H](C)CC)NC(=O)[C@H](CC(C)C)N(C)C(=O)C[C@@H](C(=O)N2CCCCC2)N(C)C(=O)[C@H](CC(C)C)NC(=O)C(C)(C)N(C)C1=O [Compound 1305] ([NMeL]I[Sar][Sar][NMePhe(4-Cl)][Sar][Phe(4-F)][Nle][NMeAib]L[NMeD]-Piperidide; lactam N-11) | < 6.30 |
| CC[C@H](C)[C@@H]1NC(=O)[C@H](CC(C)C)N(C)C(=O)C[C@@H](C)NC(=O)[C@H](C(C)C)N(C)C(=O)C2(CCCC2)NC(=O)[C@@H]2CCCN2C(=O)[C@H](CCc2ccc(C(F)(F)F)c(Cl)c2)NC(=O)CN(C)C(=O)[C@H](Cc2ccccc2C(F)(F)F)N(C)C(=O)CN(C)C(=O)CN(C)C1=O [Compound 1613] (cyclo([Ac5c][NMeV][d(β3hA)][NMeL]I[Sar][Sar][NMePhe(2-CF3)][Sar][hPhe(3-Cl-4-CF3)]P)) | < 6.30 |
| CC[C@H](C)[C@@H]1NC(=O)[C@H](C)N(C)C(=O)C[C@@H](C)NC(=O)[C@H](C2CCCCC2)N(C)C(=O)C2(CCCC2)NC(=O)[C@@H]2CCCN2C(=O)[C@H](CCc2ccc(C(F)(F)F)c(Cl)c2)NC(=O)CN(C)C(=O)[C@H](CC2CCCCC2)N(C)C(=O)CN(C)C(=O)CN(C)C1=O [Compound 1688] (cyclo([Ac5c][NMeChg][d(β3hA)][NMeA]I[Sar][Sar][NMeCha][Sar][hPhe(3-Cl-4-CF3)]P)) | < 6.30 |
| CC[C@H](C)[C@@H]1NC(=O)[C@H](CC(C)C)N(C)C(=O)C[C@@H](C(=O)N2CCCCC2)N(C)C(=O)[C@H](C2CCCCC2)N(C)C(=O)C2(CCCCC2)NC(=O)[C@@H]2CCCN2C(=O)[C@H](CCc2ccc(C(F)(F)F)c(Cl)c2)NC(=O)CN(C)C(=O)[C@H](CC2CCCCC2)N(C)C(=O)CN(C)C(=O)CN(C)C1=O [Compound 1644] ([NMeL]I[Sar][Sar][NMeCha][Sar][hPhe(3-Cl-4-CF3)]P[Ac6c][NMeChg][NMeD]-Piperidide; lactam N-11) | < 6.30 |
| CC(C)C[C@@H]1NC(=O)[C@H](CC(C)C)N(C)C(=O)C[C@@H](C(=O)N2CCCCC2)N(C)C(=O)[C@H](C(C)C)N(C)C(=O)C2(CCCC2)NC(=O)[C@@H]2CCCN2C(=O)[C@H](CCc2ccc(C(F)(F)F)c(Cl)c2)NC(=O)CN(C)C(=O)[C@H](CC2CCCCC2)N(C)C(=O)[C@@H]2CCN2C(=O)[C@H](C)N(C)C1=O [Compound 1754] ([NMeL]L[NMeA][Aze][NMeCha][Sar][hPhe(3-Cl-4-CF3)]P[Ac5c][NMeV][NMeD]-Piperidide; lactam N-11) | < 6.30 |
